Key:
[1] = molecular target: EGFR (Homo sapiens, UniProt P00533); test: EGFR signaling (pEGFR Tyr1068/total EGFR MSD) in A431 cells; type: cell-based; set-up: endogenous in cells; host or cells: A431, N87; conditions: for EC50: A431 cells, read-out: A431 pEGFR EC50; for Selectivity A431 EC50/BT474 EC50: ratio A431 pEGFR EC50 to BT474 pHER2 EC50; for Selectivity A431 EC50/HEKYVMA EC50: ratio A431 pEGFR EC50 to HEK YVMA pHER2 EC50
In short: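 EC50 was fitted with variable Hill slope from MSD pTyr1068/total EGFR ratios, expressed as % DMSO control. A431 cells were starved overnight, then exposed 1.5 h to eight concentrations from 10 to 0.005 μM in 1% FBS before a 10-min 100 ng/mL EGF pulse.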

[2] = molecular target: T1, HER2 WT (Homo sapiens, UniProt P04626); test: Enzymatic assay HER2 WT (method a); type: biochemical; conditions: [HER2 WT]=12.5 nM, [ATP]=25 μM, [Peptide 22]=1 μM
T1 construct: purchased ProQinase, Freiburg, Germany ERBB2 0108-0000-1
T1 sequence (P04626 23-1255): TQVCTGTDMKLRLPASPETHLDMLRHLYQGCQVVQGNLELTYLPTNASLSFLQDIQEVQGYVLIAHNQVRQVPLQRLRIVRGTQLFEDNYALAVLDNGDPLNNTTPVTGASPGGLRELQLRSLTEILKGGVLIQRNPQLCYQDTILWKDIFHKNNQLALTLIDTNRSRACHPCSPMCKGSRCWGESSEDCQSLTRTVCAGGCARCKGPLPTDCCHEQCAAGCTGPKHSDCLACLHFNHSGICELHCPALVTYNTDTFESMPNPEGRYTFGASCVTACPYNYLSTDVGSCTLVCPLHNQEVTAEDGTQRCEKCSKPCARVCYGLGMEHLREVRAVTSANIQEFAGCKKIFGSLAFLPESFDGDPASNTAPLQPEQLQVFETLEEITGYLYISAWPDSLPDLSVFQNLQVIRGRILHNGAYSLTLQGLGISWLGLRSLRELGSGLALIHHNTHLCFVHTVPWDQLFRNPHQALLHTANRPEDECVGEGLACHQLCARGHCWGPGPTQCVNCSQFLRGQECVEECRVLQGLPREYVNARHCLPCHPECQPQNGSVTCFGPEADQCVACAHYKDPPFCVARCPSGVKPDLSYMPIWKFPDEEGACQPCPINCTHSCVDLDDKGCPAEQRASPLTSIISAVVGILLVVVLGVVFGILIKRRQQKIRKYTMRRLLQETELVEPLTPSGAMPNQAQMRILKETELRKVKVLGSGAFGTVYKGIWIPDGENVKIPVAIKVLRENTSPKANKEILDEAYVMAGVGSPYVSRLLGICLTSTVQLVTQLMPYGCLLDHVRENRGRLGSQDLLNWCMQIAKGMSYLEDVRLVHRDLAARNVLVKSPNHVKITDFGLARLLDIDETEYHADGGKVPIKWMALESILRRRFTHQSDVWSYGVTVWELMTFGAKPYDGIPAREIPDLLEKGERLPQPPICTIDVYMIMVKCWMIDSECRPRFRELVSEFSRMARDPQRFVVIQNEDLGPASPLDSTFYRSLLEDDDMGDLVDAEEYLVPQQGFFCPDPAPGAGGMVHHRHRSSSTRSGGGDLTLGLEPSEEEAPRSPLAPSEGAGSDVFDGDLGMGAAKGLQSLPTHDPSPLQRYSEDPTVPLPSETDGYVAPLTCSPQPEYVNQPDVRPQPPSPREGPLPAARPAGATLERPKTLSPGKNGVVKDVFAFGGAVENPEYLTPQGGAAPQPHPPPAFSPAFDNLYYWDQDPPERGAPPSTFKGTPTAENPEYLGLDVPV
In short: (§1)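 Initial rates over 0–3600 s, read as substrate-to-product conversion by capillary electrophoresis, were converted to percent inhibition and fitted with a variable-slope curve to give IC50. Conditions: EGFR WT 2 nM with 1 mM ATP; HER2 YVMA 5 nM or HER2 WT 12.5 nM, each with 25 μM ATP. All used 1 μM Peptide 22 in pH 7.5 HEPES/Mn/Mg buffer.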

[3] = molecular target: HER2YVMA (Homo sapiens, UniProt P04626, INS775YVMA); test: Enzymatic assay HER2YVMA (method b); type: biochemical; set-up: purchased Viva biotech, Shanghai, China custom purification; conditions: [HER2YVMA]=5 nM, [ATP]=25 μM, [Peptide 22]=1 μM
Sequence of HER2YVMA (P04626 with tags, fused parts or gaps INS775YVMA): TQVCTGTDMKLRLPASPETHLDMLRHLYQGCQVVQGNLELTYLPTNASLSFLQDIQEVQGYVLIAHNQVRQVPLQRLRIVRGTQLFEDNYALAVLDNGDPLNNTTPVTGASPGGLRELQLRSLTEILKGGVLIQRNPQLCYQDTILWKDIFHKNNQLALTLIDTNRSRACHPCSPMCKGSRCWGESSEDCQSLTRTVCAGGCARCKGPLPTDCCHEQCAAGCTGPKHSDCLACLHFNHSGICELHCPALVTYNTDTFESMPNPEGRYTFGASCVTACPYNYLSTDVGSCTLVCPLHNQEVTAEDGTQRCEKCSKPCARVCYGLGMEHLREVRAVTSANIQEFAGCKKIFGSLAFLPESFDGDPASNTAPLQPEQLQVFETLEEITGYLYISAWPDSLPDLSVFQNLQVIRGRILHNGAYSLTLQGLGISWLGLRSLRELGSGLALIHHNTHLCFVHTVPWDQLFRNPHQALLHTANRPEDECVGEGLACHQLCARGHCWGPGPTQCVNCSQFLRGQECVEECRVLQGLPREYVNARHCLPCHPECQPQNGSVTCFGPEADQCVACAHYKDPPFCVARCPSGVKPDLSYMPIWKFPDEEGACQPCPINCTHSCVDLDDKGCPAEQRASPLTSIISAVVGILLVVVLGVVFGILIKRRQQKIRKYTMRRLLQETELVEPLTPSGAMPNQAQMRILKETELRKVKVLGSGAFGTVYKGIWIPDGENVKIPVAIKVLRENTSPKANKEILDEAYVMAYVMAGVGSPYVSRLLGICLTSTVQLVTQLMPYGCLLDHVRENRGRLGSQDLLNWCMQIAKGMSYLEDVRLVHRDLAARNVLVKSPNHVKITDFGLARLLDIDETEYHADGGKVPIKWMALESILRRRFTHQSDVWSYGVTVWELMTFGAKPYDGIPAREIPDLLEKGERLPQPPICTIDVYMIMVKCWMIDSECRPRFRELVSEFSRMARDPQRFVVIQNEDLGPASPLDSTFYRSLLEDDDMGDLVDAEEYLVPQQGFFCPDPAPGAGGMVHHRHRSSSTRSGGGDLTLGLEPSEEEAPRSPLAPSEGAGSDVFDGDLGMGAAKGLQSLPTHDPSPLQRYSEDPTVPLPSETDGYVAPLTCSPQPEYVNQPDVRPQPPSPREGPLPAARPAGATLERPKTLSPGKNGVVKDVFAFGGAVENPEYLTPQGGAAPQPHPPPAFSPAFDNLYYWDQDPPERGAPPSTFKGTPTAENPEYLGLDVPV
In short: as §1

Sequence of EGFR (P00533 25-1210): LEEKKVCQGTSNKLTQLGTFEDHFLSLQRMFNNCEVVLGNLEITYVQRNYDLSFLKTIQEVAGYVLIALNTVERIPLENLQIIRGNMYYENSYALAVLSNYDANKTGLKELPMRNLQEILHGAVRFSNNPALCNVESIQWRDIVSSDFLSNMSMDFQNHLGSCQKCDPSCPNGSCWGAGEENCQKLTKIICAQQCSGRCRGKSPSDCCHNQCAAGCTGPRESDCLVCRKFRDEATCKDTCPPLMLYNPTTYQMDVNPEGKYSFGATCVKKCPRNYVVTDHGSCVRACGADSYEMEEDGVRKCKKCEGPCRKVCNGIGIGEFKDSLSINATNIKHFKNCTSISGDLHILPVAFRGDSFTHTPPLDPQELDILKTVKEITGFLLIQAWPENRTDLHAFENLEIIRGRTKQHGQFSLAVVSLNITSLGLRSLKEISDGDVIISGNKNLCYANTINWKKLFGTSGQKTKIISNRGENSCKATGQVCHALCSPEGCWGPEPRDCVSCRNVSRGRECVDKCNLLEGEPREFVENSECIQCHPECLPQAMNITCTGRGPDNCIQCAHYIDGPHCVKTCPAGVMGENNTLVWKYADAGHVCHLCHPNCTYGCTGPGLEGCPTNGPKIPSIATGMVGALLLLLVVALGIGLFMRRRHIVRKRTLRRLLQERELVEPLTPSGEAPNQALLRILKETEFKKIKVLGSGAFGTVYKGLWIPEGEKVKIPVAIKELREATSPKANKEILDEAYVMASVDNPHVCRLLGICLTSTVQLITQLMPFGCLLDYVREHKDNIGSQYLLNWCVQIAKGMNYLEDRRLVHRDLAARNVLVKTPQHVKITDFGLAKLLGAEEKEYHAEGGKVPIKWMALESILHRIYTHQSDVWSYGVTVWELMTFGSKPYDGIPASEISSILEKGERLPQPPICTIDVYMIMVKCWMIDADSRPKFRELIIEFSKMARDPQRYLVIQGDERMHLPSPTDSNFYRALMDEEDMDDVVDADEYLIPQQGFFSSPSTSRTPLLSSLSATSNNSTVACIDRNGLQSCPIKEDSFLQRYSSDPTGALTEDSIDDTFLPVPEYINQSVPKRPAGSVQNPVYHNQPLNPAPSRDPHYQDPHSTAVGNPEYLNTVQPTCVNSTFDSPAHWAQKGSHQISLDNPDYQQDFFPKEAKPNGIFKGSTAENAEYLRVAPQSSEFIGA

SMILES | EC50 [1] | Selectivity A431 EC50/BT474 EC50 [1] | Selectivity A431 EC50/HEKYVMA EC50 [1] | IC50 [2] | IC50 [3]
CC(=O)N1CCN(C/C=C/C(=O)N2CCc3c(sc4ncnc(Nc5ccc(Oc6ccc(C)nc6)c(C)c5)c34)C2)CC1 [Compound 51] | 1000 to 10000 nM | C (C: ≥ 10 and < 20) | E (E: >1 and < 5) | < 100 nM | 100 to 1000 nM
Cc1ccc(Oc2ccc(Nc3ncnc4sc5c(c34)CCN(C(=O)/C=C/CNCc3ccsc3)C5)cc2C)cn1 [Compound 52] | < 100 nM | D (D: ≥ 5 and < 10) | C (C: ≥ 10 and < 20) | < 100 nM | < 100 nM
Cc1ccc(Oc2ccc(Nc3ncnc4sc5c(c34)CCN(C(=O)/C=C/CN3CC(O)C3)C5)cc2C)cn1 [Compound 53] | 1000 to 10000 nM | C (C: ≥ 10 and < 20) | D (D: ≥ 5 and < 10) | < 100 nM | < 100 nM
Cc1ccc(Oc2ccc(Nc3ncnc4sc5c(c34)CCN(C(=O)/C=C/CNC3CCC3)C5)cc2C)cn1 [Compound 54] | 100 to 1000 nM | D (D: ≥ 5 and < 10) | D (D: ≥ 5 and < 10) | < 100 nM | < 100 nM
Cc1ccc(Oc2ccc(Nc3ncnc4sc5c(c34)CCN(C(=O)/C=C/CN3CC=CCC3)C5)cc2C)cn1 [Compound 55] | 100 to 1000 nM | B (B: ≥ 20 and < 100) | B (B: ≥ 20 and < 100) | < 100 nM | < 100 nM
CON(C)C/C=C/C(=O)N1CCc2c(sc3ncnc(Nc4ccc(Oc5ccc(C)nc5)c(C)c4)c23)C1 [Compound 56] | 1000 to 10000 nM | C (C: ≥ 10 and < 20) | B (B: ≥ 20 and < 100) | 100 to 1000 nM | 100 to 1000 nM
Cc1ccc(Oc2ccc(Nc3ncnc4sc5c(c34)CCN(C(=O)/C=C/CN3CC4(C3)CS(=O)(=O)C4)C5)cc2C)cn1 [Compound 57] | < 100 nM | D (D: ≥ 5 and < 10) | D (D: ≥ 5 and < 10) | < 100 nM | < 100 nM
Cc1ccc(Oc2ccc(Nc3ncnc4sc5c(c34)CCN(C(=O)/C=C/CN3CCN4C(=O)CCC4C3)C5)cc2C)cn1 (centres unmarked) [Compound 58] | 1000 to 10000 nM | C (C: ≥ 10 and < 20) | D (D: ≥ 5 and < 10) | 100 to 1000 nM | 100 to 1000 nM
COCCN1CCN(C/C=C/C(=O)N2CCc3c(sc4ncnc(Nc5ccc(Oc6ccc(C)nc6)c(C)c5)c34)C2)CC1 [Compound 59] | 100 to 1000 nM | B (B: ≥ 20 and < 100) | C (C: ≥ 10 and < 20) | < 100 nM | 100 to 1000 nM
Cc1ccc(Oc2ccc(Nc3ncnc4sc5c(c34)CCN(C(=O)/C=C/CN3CCn4cc(C(F)(F)F)nc4C3)C5)cc2C)cn1 [Compound 61] | > 10000 nM | B (B: ≥ 20 and < 100) | C (C: ≥ 10 and < 20) | 1000 to 10000 nM | 1000 to 10000 nM
Cc1ccc(Oc2ccc(Nc3ncnc4sc5c(c34)CCN(C(=O)/C=C/CN3CCC(n4ccnc4)CC3)C5)cc2C)cn1 [Compound 62] | 100 to 1000 nM | B (B: ≥ 20 and < 100) | E (E: >1 and < 5) | < 100 nM | < 100 nM
Cc1cc(Nc2ncnc3sc4c(c23)CCN(C(=O)/C=C/CN(C)C)C4)ccc1Oc1cccc(B(O)O)c1 [Compound 64, (E)-(3-(4-((7-(4-(dimethylamino)but-2-enoyl)-5,6,7,8-tetrahydropyrido[4′,3′:4,5]thieno[2,3-d]pyrimidin-4-yl)amino)-2-methylphenoxy)phenyl)boronic acid] | 100 to 1000 nM | C (C: ≥ 10 and < 20) | E (E: >1 and < 5) | < 100 nM | < 100 nM
Cc1ccc(Oc2ccc(Nc3ncnc4sc5c(c34)CCN(C(=O)/C=C/CNCCO)C5)cc2C)cn1 [Compound 65] | 100 to 1000 nM | D (D: ≥ 5 and < 10) | E (E: >1 and < 5) | < 100 nM | < 100 nM
Cc1ccc(Oc2ccc(Nc3ncnc4sc5c(c34)CCN(C(=O)/C=C/CN3C[C@H]4CC[C@@H](C3)O4)C5)cc2C)cn1 [Compound 66] | 100 to 1000 nM | C (C: ≥ 10 and < 20) | C (C: ≥ 10 and < 20) | < 100 nM | < 100 nM
Cc1ccc(Oc2ccc(Nc3ncnc4sc5c(c34)CCN(C(=O)/C=C/CN3CCC4(CCOC4)C3)C5)cc2C)cn1 (centres unmarked) [Compound 67] | < 100 nM | D (D: ≥ 5 and < 10) | D (D: ≥ 5 and < 10) | < 100 nM | < 100 nM
Cc1ccc(Oc2ccc(Nc3ncnc4sc5c(c34)CCN(C(=O)/C=C/CN[C@H]3CC[C@H](OC4CC4)CC3)C5)cc2C)cn1 [Compound 68] | < 100 nM | D (D: ≥ 5 and < 10) | E (E: >1 and < 5) | < 100 nM | < 100 nM
Cc1ccc(Oc2ccc(Nc3ncnc4sc5c(c34)CCN(C(=O)/C=C/CN[C@H]3CC[C@H](OC(F)F)CC3)C5)cc2C)cn1 [Compound 69] | < 100 nM | A (A: ≥100) | D (D: ≥ 5 and < 10) | < 100 nM | < 100 nM
Cc1ccc(Oc2ccc(Nc3ncnc4sc5c(c34)CCN(C(=O)/C=C/CN[C@H]3CC[C@H](OCC(F)(F)F)CC3)C5)cc2C)cn1 [Compound 70] | < 100 nM | D (D: ≥ 5 and < 10) | E (E: >1 and < 5) | < 100 nM | < 100 nM
Cc1ccc(Oc2ccc(Nc3ncnc4sc5c(c34)CCN(C(=O)/C=C/CNC3CCC(C(=O)N(C)C)CC3)C5)cc2C)cn1 (centres unmarked) [Compound 71] | < 100 nM | A (A: ≥100) | E (E: >1 and < 5) | < 100 nM | < 100 nM
Cc1ccc(Oc2ccc(Nc3ncnc4sc5c(c34)CCN(C(=O)/C=C/CNC34CCC(C#N)(CC3)CC4)C5)cc2C)cn1 [Compound 72] | < 100 nM | D (D: ≥ 5 and < 10) | E (E: >1 and < 5) | < 100 nM | < 100 nM
Cc1ccc(Oc2ccc(Nc3ncnc4sc5c(c34)CCN(C(=O)/C=C/CN[C@H]3CCC[C@H](O)C3)C5)cc2C)cn1 [Compound 73] | 100 to 1000 nM | D (D: ≥ 5 and < 10) | E (E: >1 and < 5) | < 100 nM | < 100 nM
Cc1ccc(Oc2ccc(Nc3ncnc4sc5c(c34)CCN(C(=O)/C=C/CN3CCC(O)C3)C5)cc2C)cn1 (centres unmarked) [Compound 74] | 100 to 1000 nM | D (D: ≥ 5 and < 10) | D (D: ≥ 5 and < 10) | < 100 nM | < 100 nM
Cc1ccc(Oc2ccc(Nc3ncnc4sc5c(c34)CCN(C(=O)/C=C/CN[C@@H](C)CO)C5)cc2C)cn1 [Compound 75] | < 100 nM | D (D: ≥ 5 and < 10) | D (D: ≥ 5 and < 10) | < 100 nM | < 100 nM
Cc1ccc(Oc2ccc(Nc3ncnc4sc5c(c34)CCN(C(=O)/C=C/CN3CC4CC4C3)C5)cc2C)cn1 (centres unmarked) [Compound 76] | < 100 nM | C (C: ≥ 10 and < 20) | C (C: ≥ 10 and < 20) | < 100 nM | < 100 nM
Cc1cc(Nc2ncnc3sc4c(c23)CCN(C(=O)/C=C/CN2CC3CC2CO3)C4)ccc1Oc1ccc2ncnn2c1 (centres unmarked) [Compound 77] | 1000 to 10000 nM | B (B: ≥ 20 and < 100) | D (D: ≥ 5 and < 10) | 100 to 1000 nM | 100 to 1000 nM
Cc1cc(Nc2ncnc3sc4c(c23)CCN(C(=O)/C=C/CN(C)C(C)(C)C)C4)ccc1Oc1ccc2ncnn2c1 [Compound 80] | 100 to 1000 nM | B (B: ≥ 20 and < 100) | B (B: ≥ 20 and < 100) | < 100 nM | < 100 nM
Cc1cc(Nc2ncnc3sc4c(c23)CCN(C(=O)/C=C/CN2CC3C(CO)C3C2)C4)ccc1Oc1ccc2ncnn2c1 (centres unmarked) [Compound 81] | 100 to 1000 nM | B (B: ≥ 20 and < 100) | C (C: ≥ 10 and < 20) | < 100 nM | < 100 nM
Cc1cc(Nc2ncnc3sc4c(c23)CCN(C(=O)/C=C/CN2CC3CC(C3)C2)C4)ccc1Oc1ccc2ncnn2c1 [Compound 82] | 100 to 1000 nM | C (C: ≥ 10 and < 20) | C (C: ≥ 10 and < 20) | < 100 nM | < 100 nM

Reference: patent publication US20240391931A1 (Bristol-Myers Squibb Company, priority 2021, published 2024)
